Experimental findings from patent US20120213826A1, “Use of Pro-Inflammatory Compounds for Promoting Bone Formation” (Imperial Innovations Limited, priority 2009, published 2012) are described below.

The experiment deals with muscle-derived stromal cells (MDSC). Briefly: ALP quantification assay, osteogenic differentiation of cultured MDSC. In kind it is cell-based, human. From the text:
The immunoglobulin isotype controls used included IgG^1 for AbBMP-2/4 and AbTGF-β, and IgG^2B for Ab-BMP-7. B: human serum containing culture medium with the addition of recombinant human BMPs and TGF-β. C: fracture supernatant±antibody neutralization of TNF-α, IL-6 and IL-1β. The IgG^1 immunoglobulin was used as the antibody isotype control. D: human serum-containing culture medium with the addition of recombinant human TNF-α, IL-6 and IL-1β. E: Alizarin red staining for bone nodule formation after culture of 1×10^4 MDSC in human serum-containing media. […] A representative image from a single well is shown. All experiments were performed 3 times, in triplicate (n=3) using MDSC from 3 donors. Values for A-D represent a mean from 3 experiments ±SEM, using supernatant from 3 donors in A and C. *: P<0.05; **: P<0.01; ***: P<0.001; 1-way ANOVA with Bonferroni's multiple comparison test in A and C and with Dunnett's multiple comparison test against the media only control in B and D.
To investigate the fracture-derived stimulus for osteogenic differentiation of MDSC, fracture supernatants were prepared using human tibial fracture fragments obtained within 24 hours of injury (ethics approval number—COREC No: 07/Q0411/30). […] Bone fragments were obtained from either fractured tibial fragments or non-traumatically cut bone slices. These were then incubated in serum free DMEM+Glutamax media for 24 hours. The supernatant was then filter sterilised to remove any contaminants and cellular debris. MDSC were then cultured in the presence of either control media, osteogenic media, fracture supernatant or non-fracture supernatant for 7 days before lysis and quantification of ALP levels.
1×10^4 human MDSC were added to wells of a 96 well plate in triplicate. At 24 hrs the media was pipetted off and replaced by 200 μl test media. The media was changed every 3 days. At 7 days the media was removed and the cells lysed in 20 μl NP-40 lysis buffer. An ALP quantification assay (WAKO pure chemical Ltd.) was used. Calibration solution from the assay was serially diluted to make concentrations of 0.25, 0.125 and 0.0625 mmol/L. To empty wells, 20 μl of each calibration solution was added. To another, dH2O was added. 100 μl reagent (1 taBIet per 5 ml buffer solution) was added to each well, and incubated at 37° C. for 20 minutes. 80 μl stop solution was then added to each well and the plate was read using an ELISA spectrometer at 405 nm wavelength. The concentration of ALP in the test wells was extrapolated from the standard curve.

In the case of TNFα, the “ALP expression (osteogenic differentiation) in cultured MDSC” value (Example 1, exogenous recombinant human factor added to MDSC culture (FIG. 8, 10, 12)) is recorded as “dose-dependent stimulation of ALP expression”. Moreover, the “ALP expression by MDSC” value (Example 3, 7 days in human serum-containing media with recombinant human factor (FIG. 26B, 26D)) was “stimulated ALP expression”. The “concentration at which ALP expression by MDSC is stimulated” value (Example 3, 7 days, human serum-containing media (FIG. 26D)) was “up to 1 ng/ml”. In addition, the “ALP expression by MDSC relative to control” value (Example 3, TNF-α at 100 ng/ml, 7 days (FIG. 26D)) was “non-significantly less than the control”.
